Entries after “also recorded” stand apart in the source; their conditions may differ. Like-named read-outs stand apart in the source and are kept apart here. Non-standard residues stand in square brackets, D forms with d. Residues, ends and D or L forms follow the SMILES beside them. Sar = CNCC(=O)O
What was measured:
PEPT1 [1] = target: T1, PEPT1 (Homo sapiens, UniProt P46059); test: Inhibition of PEPT1-mediated [14C]LY2140023 uptake in transfected HeLa cells; conditions: for IC50: 10 μM [14C]LY2140023
T1 sequence (P46059 1-708): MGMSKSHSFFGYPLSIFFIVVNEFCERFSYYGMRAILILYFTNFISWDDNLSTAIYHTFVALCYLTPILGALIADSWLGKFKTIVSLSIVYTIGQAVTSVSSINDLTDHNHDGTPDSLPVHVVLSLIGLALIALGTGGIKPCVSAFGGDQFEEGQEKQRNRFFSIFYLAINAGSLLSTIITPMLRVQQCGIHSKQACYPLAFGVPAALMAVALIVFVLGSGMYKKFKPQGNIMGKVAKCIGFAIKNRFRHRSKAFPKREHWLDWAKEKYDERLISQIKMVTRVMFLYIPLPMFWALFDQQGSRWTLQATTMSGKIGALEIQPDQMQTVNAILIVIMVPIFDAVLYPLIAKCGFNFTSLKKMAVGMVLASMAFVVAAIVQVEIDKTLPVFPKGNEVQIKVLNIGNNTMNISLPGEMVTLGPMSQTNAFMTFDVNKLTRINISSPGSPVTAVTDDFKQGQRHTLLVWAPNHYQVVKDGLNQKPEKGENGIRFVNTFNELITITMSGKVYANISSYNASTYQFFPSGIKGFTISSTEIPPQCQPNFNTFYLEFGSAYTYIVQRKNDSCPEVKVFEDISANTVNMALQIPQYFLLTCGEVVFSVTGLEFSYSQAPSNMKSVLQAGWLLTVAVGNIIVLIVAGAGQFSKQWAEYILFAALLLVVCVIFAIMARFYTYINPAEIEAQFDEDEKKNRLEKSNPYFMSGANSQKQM
Experimental: Briefly, cells were seeded at a density of 65,000 cells/ml in 24-well plates. After achieving 50 to 80% confluency, cells were transfected with SLC15A1, gene for PEPT1 (accession number NM_005073) inserted in pcDNA3.1 or pcDNA3.1 empty vector (Invitrogen) using Fugene 6 (Roche, Indianapolis, IN) following the manufacturer’s protocol.
The solubility of compounds at these concentrations was checked by using a fiber-optic light source.
where [I] is an inhibitor concentration in micromoles. Top is the highest % activity in the absence of inhibitor, and S is the slope factor.

PEPT1 [2] = target: T1, PEPT1; set-up: expressed in transfected cells; host or cells: HeLa cells (ATCC), transiently transfected with Fugene 6, pcDNA3.1 vector; method as in Zhang et al. (2004); conditions: Gly-Sar 50 μM; ref Zhang et al. (2004); read-out: IC50 against Gly-Sar; cited from earlier work
PEPT1 [3] = target: T1, PEPT1; set-up: expressed in transfected cells; method as in Han, 1999; conditions: CHO cells transfected with PEPT1, ref Han, 1999, cited from earlier work
PEPT1 [4] = target: T1, PEPT1; test: System validation: proton- and concentration-dependent uptake of [14C]Gly-Sar in PEPT1 transfected HeLa cells; assay type: in vitro ADME; set-up: expressed in transfected cells; host or cells: HeLa cells (ATCC), transiently transfected with Fugene 6, pcDNA3.1 vector
Experimental: (§1) Assessment of both the proton-dependent uptake ([Liang et al., 1995]) and the concentration-dependent uptake of [^14C]Gly-Sar by the transiently transfected HeLa cells was used to validate the in vitro system. For proton-dependent uptake, [^14C]Gly-Sar was measured 24 hour post transfection at either pH 6.0 or 7.5. PEPT1- and empty vector-transfected cells were incubated with [^14C]Gly-Sar (50 µM) for 5 minutes at room temperature. Cells transfected with empty pcDNA3.1 vector were used to measure the passive diffusion of [^14C]Gly-Sar. For concentration-dependent uptake, transfected cells were incubated with [^14C]Gly-Sar at concentrations from 50 to 5000 µM for 3 minutes at room temperature. For both proton- and concentration-dependent experiments, cells were washed three times with ice-cold phosphate-buffered saline after incubation with Gly-Sar to stop uptake and then lysed with 0.3 ml 1% triton X-100 in phosphate-buffered saline for 30 minutes at room temperature. Scintillation counting was conducted to determine radioactivity, and protein levels were determined by the bicinchoninic acid method ([Smith et al., 1985]).

MDCK-MDR1 cells = tested on: MDCK-MDR1 cells; set-up: method as in data on file, Eli Lilly and Company; conditions: ref data on file, Eli Lilly and Company; cited from earlier work
PEPT1 [5] = target: T1, PEPT1; test: Proton- and time-dependent transport of prodrug and active moiety in PEPT1 transfected HeLa cells; assay type: in vitro ADME; set-up: expressed in transfected cells; host or cells: HeLa cells (ATCC), transiently transfected with Fugene 6, pcDNA3.1 vector; conditions: 30 μM, pH 6.0 or 7.5, PEPT1 vs empty vector transfected HeLa cells
Experimental: The PEPT1 mediated [^14C]LY2140023 (30 μM) and [^14C]LY404039 (30 μM) uptake was measured in cells 24 hours post transfection. The time-dependent transport of LY2140023 and LY404039 was conducted using buffers prepared at either pH 6.0 or 7.5 as described above. The cells transfected with empty pcDNA3.1 vector were used to measure the passive diffusion of LY2140023 and LY404039. The cells were incubated for 1, 2.5, 5, 7.5, 10, and 15 minutes at room temperature and were washed, lysed, and contents quantified as described above.

[6] = Clinical drug interaction study (H8Y-MC-HBCF), plasma and urine pharmacokinetics in healthy subjects; conditions: for Vd/F: Vz/F; for Tmax: median (min–max)
Experimental: For the active moiety, the LLQ was 50 ng/ml and the ULQ was 5000 ng/ml.
Actual sampling times were used in the analyses with the exception of predose times, which were set to 0 hour. Area under the curve (AUC) values were determined using log-linear trapezoid methods.
The fraction of the dose excreted (fe) was also determined. For the active moiety dose, the 0.64 correction factor was used as described previously. […] The parameters were log transformed before analysis. The least squares means (LSM) for each treatment and the 90% confidence intervals (CI) for the difference in means between test and reference treatment groups were estimated from the model and back transformed from the log scale to provide estimates of the geometric means and 90% CIs for the ratio of geometric means. The analysis of tmax was based on a nonparametric method. Medians and range for treatments and the P value computed for comparison of median values using Wilcoxon signed rank test are presented.

[7] = substrate: CSCC[C@H](N)C(=O)N[C@@]1(C(=O)O)CS(=O)(=O)[C@H]2[C@H](C(=O)O)[C@H]21; test: Concentration-dependent uptake of [14C]LY2140023 in PEPT1 transfected HeLa cells (kinetic parameters); assay type: in vitro ADME, human
Experimental: The concentration dependent uptake of [^14C]LY2140023, ranging from 5 up to 149 μM, was determined in PEPT1 transfected HeLa cells with 2- to 3-minute incubation at room temperature. The mean passive diffusion of prodrug at each concentration was obtained in parallel experiments in HeLa cells transfected with pcDNA3.1 empty vector and subtracted from the uptake mediated by PEPT1. The corrected data were fitted by WinNonlin Professional, version 5.0.1 or 5.3 (Certara, L.P., St. Louis, MO). The kinetic parameters of the prodrug mediated by PEPT1 were estimated by utilizing the following equation: [drawing 1] where S is the substrate concentration (μM), Vmax is the maximum uptake rate (pmol/min/mg), and Km is the concentration where uptake reaches a half of Vmax (μM).

[8] = substrate: CN(CC(=O)O)C(=O)CN; test: System validation: proton- and concentration-dependent uptake of [14C]Gly-Sar in PEPT1 transfected HeLa cells; assay type: in vitro ADME, human; conditions: other: 50 μM to 5 mM, pH 6.0
Experimental: as §1

[9] = IC50 against LY2140023, first of two separate experiments
[10] = IC50 against LY2140023, second of two separate experiments
[11] = Mean IC50 against LY2140023, mean of two separate experiments
[12] = LY2140023 + Valacyclovir vs LY2140023 Alone
[13] = other: experiment 1, 5 to 146 μM LY2140023, PEPT1 transfected HeLa cells, parameter ± S.E.M.
[14] = other: experiment 2, 6.4 to 149 μM LY2140023, PEPT1 transfected HeLa cells, parameter ± S.E.M.

NCC(=O)CCC(=O)O [ALA, 5-aminolevulinic acid]
IC50 (PEPT1 [1]; [9]): 1.77 ± 0.21 mM | IC50 (PEPT1 [1]; [10]): 1.56 ± 0.22 mM | IC50 (PEPT1 [1]; [11]): 1.67 mM | IC50 (PEPT1 [2]): 0.78 ± 0.26 mM

CC1=C(C(=O)O)N2C(=O)[C@@H](NC(=O)[C@H](N)c3ccc(O)cc3)[C@H]2SC1 [Cefadroxil]
IC50 (PEPT1 [1]; [9]): 4.05 ± 0.44 mM | IC50 (PEPT1 [1]; [10]): 5.93 ± 1.47 mM | IC50 (PEPT1 [1]; [11]): 4.99 mM | IC50 (PEPT1 [2]): 1.88 ± 0.35 mM

CCOC(=O)[C@H](CCc1ccccc1)N[C@@H](C)C(=O)N1CCC[C@H]1C(=O)O [Enalapril]
IC50 (PEPT1 [1]; [9]): 11 ± 2.64 mM | IC50 (PEPT1 [1]; [10]): 10.3 ± 0.42 mM | IC50 (PEPT1 [1]; [11]): 10.7 mM | IC50 (PEPT1 [2]): 2.13 ± 0.36 mM

CN(CC(=O)O)C(=O)CN [Gly-Sar, glycylsarcosine] (H-Gly-[Sar]-OH)
reported Vmax (PEPT1 [3]): 3517 pmol/min/mg | Km (PEPT1 [3]; read-out: reported Km): 500 µM | IC50 (PEPT1 [1]; [9]): 1.29 ± 0.26 mM | IC50 (PEPT1 [1]; [10]): 0.69 ± 0.17 mM | IC50 (PEPT1 [1]; [11]): 0.99 mM | transport at pH 6.0 relative to pH 7.5 (PEPT1 [4]; [14C]Gly-Sar 50 µM, 5 minutes, PEPT1 transfected HeLa cells): approximately five | passive diffusion rate (PEPT1 [4]; control cells (empty pcDNA3.1 vector)): 0.0972 µL/min/mg

N[C@@H](Cc1ccc(O)c(O)c1)C(=O)O [L- DOPA, L-DOPA]
inhibition at 25000 µM (PEPT1 [1]; HeLa, read-out: inhibition of [14C]LY2140023 uptake): < 50% | IC50 (PEPT1 [1]; [9]): 25.3 ± 2.57 mM | IC50 (PEPT1 [1]; [10]): 26.5 ± 9.38 mM | IC50 (PEPT1 [1]; [11]): 25.9 mM | IC50 (PEPT1 [2]): 14.9 ± 2.45 mM

N[C@@]1(C(=O)O)CS(=O)(=O)[C@H]2[C@H](C(=O)O)[C@H]21 [LY404039]
passive permeability (MDCK-MDR1 cells): approximately 1 × 10^−6 cm/s | PEPT1 substrate status (PEPT1 [5]): is not a PEPT1 substrate; also recorded: not transported by PEPT1 | CL/F ([6]; LY2140023 80 mg + valacyclovir 1000 mg coadministered, geometric mean (CV%)): 20.5 (24) L/hour | AUC(0-∞) Ratio Test/Reference [6, 12]: 0.94 | Cmax Ratio Test/Reference [6, 12]: 0.92 | active moiety present at the first sampling time ([6]; after administration of the prodrug): 18 of 21 subjects | half-life ([6]; human, plasma, oral, 80 mg): 3.05 h | AUC(0-inf) ([6]; human, plasma, oral, 80 mg, AUC(0-∞) LS Geometric Mean, LY2140023 Alone (Reference)): 2670 ng·h/mL | AUC(0-inf) ([6]; human, plasma, oral, 80 mg, AUC(0-∞), single 80-mg dose of LY2140023 alone, geometric mean (CV%)): 2600 ng·h/mL | Cmax ([6]; human, plasma, oral, 80 mg, Cmax LS Geometric Mean, LY2140023 Alone (Reference)): 484 ng/mL | Cmax ([6]; human, plasma, oral, 80 mg, Cmax, single 80-mg dose of LY2140023 alone, geometric mean (CV%)): 477 ng/mL | Vd/F ([6]; human, plasma, oral, 80 mg, single 80-mg dose of LY2140023 alone, geometric mean (CV%)): 86.5 L | Tmax ([6]; human, plasma, oral, 80 mg, single 80-mg dose of LY2140023 alone): 4 h | AUC(0-inf) ([6]; human, plasma, oral, AUC(0-∞) LS Geometric Mean, LY2140023 + Valacyclovir (Test)): 2500 ng·h/mL | AUC(0-inf) ([6]; human, plasma, oral, AUC(0-∞), LY2140023 80 mg + valacyclovir 1000 mg coadministered, geometric mean (CV%)): 2490 ng·h/mL | Cmax ([6]; human, plasma, oral, Cmax LS Geometric Mean, LY2140023 + Valacyclovir (Test)): 447 ng/mL | Cmax ([6]; human, plasma, oral, Cmax, LY2140023 80 mg + valacyclovir 1000 mg coadministered, geometric mean (CV%)): 444 ng/mL | Vd/F ([6]; human, plasma, oral, LY2140023 80 mg + valacyclovir 1000 mg coadministered, geometric mean (CV%)): 92.2 L | Tmax ([6]; human, plasma, oral, LY2140023 80 mg + valacyclovir 1000 mg coadministered): 4 h | CL renal ([6]; human, urine and plasma, oral, 80 mg): 213 mL/min | CL/F ([6]; single 80-mg dose of LY2140023 alone, geometric mean (CV%)): 19.7 (16) L/hour

B1: PEPT1 (Homo sapiens) (protein)
chain: MGMSKSHSFFGYPLSIFFIVVNEFCERFSYYGMRAILILYFTNFISWDDNLSTAIYHTFVALCYLTPILGALIADSWLGKFKTIVSLSIVYTIGQAVTSVSSINDLTDHNHDGTPDSLPVHVVLSLIGLALIALGTGGIKPCVSAFGGDQFEEGQEKQRNRFFSIFYLAINAGSLLSTIITPMLRVQQCGIHSKQACYPLAFGVPAALMAVALIVFVLGSGMYKKFKPQGNIMGKVAKCIGFAIKNRFRHRSKAFPKREHWLDWAKEKYDERLISQIKMVTRVMFLYIPLPMFWALFDQQGSRWTLQATTMSGKIGALEIQPDQMQTVNAILIVIMVPIFDAVLYPLIAKCGFNFTSLKKMAVGMVLASMAFVVAAIVQVEIDKTLPVFPKGNEVQIKVLNIGNNTMNISLPGEMVTLGPMSQTNAFMTFDVNKLTRINISSPGSPVTAVTDDFKQGQRHTLLVWAPNHYQVVKDGLNQKPEKGENGIRFVNTFNELITITMSGKVYANISSYNASTYQFFPSGIKGFTISSTEIPPQCQPNFNTFYLEFGSAYTYIVQRKNDSCPEVKVFEDISANTVNMALQIPQYFLLTCGEVVFSVTGLEFSYSQAPSNMKSVLQAGWLLTVAVGNIIVLIVAGAGQFSKQWAEYILFAALLLVVCVIFAIMARFYTYINPAEIEAQFDEDEKKNRLEKSNPYFMSGANSQKQM
notes: expressed in transfected cells; host or cells: HeLa cells (ATCC), transiently transfected with Fugene 6, pcDNA3.1 vector
Km ([7]; other: approximate value over experiments): 30 µM | Km [7, 13]: 28.66 ± 5.01 µM | Vmax [7, 13]: 0.000238 µmol/min/mg | Km [7, 14]: 29.98 ± 5.29 µM | Vmax [7, 14]: 0.000573 µmol/min/mg | Km [8]: 427.9 µM | Vmax [8]: 3975.3 pmol/min/mg
